According to the supplement of paper PMC8882468:

Experiments:
Test in all cases: CTG-3D luminescence at 96 h relative to day-0 seeding control (ratio to day 0); higher = more growth / less cytotoxicity; PDxO 3D drug screen, 96 h, CTG-3D normalised to day-0 seeding control.
HCI-001 = tested on: HCI-001 (organoid from a triple-negative breast cancer xenograft)
HCI-005.E2 = tested on: HCI-005.E2 (organoid from a breast cancer xenograft with a HER2-positive history)
HCI-008 = tested on: HCI-008 (organoid from a HER2-enriched breast cancer xenograft)
HCI-015 = tested on: HCI-015 (organoid from a triple-negative breast cancer xenograft)
HCI-016 = tested on: HCI-016 (organoid from a triple-negative breast cancer xenograft)

Cc1cc(Nc2ncc(Cl)c(Nc3ccccc3S(=O)(=O)C(C)C)n2)c(OC(C)C)cc1C1CCNCC1 [ceritinib]
CTG-3D luminescence at 96 h
Settings | 12.5 pM | 0.00025 µM | 0.005 µM | 0.1 µM | 1 µM | 10 µM | 100 µM | 625 fM
HCI-001, days in culture: 240 | 1.82 | 1.14 | 1.07 | 1.15 | 0.858 | 0.121 | -0.00201 | 1.26
HCI-001, days in culture: 260 | 2.25 | 1.05 | 1.67 | 1.28 | 1.21 | 0.018 | -0.00298 | 1.55
HCI-001, days in culture: 269 | 1.92 | 1.77 | 1.43 | 1.82 | 1.23 | -0.0266 | -0.0412 | 1.9
HCI-001, days in culture: 327 | 1.58 | 1.14 | 1.9 | 1.78 | 1.24 | 0.164 | -0.00344 | 1.92
HCI-001, days in culture: 346 | 1.59 | 1.27 | 1.16 | 1.24 | 1.19 | 0.45 | -0.00215 | 1.39
HCI-001, days in culture: 364 | 1.52 | 1.11 | 1.4 | 0.954 | 1.13 | 0.315 | -0.00387 | 1.85
HCI-008, days in culture: 228 | 1.69 | 1.81 | 1.55 | 1.3 | 1.15 | -0.138 | -0.142 | 1.59
HCI-008, days in culture: 244 | 1.42 | 1.74 | 1.85 | 1.55 | 1.47 | 0.0065 | -0.00443 | 2.17
HCI-015, days in culture: 172 | 1.51 | 1.75 | 2.29 | 1.44 | 1.69 | 0.00586 | -0.0049 | 2.67
HCI-015, days in culture: 191 | 2.15 | 1.47 | 1.3 | 0.962 | 1.19 | 0.00448 | -0.00428 | 1.68
HCI-015, days in culture: 218 | 1.77 | 1.1 | 1.51 | 1.54 | 1.33 | 0.00686 | -0.00473 | 1.61
HCI-016, days in culture: 153 | 3.1 | 1.87 | 2.13 | 1.93 | 2.1 | 0.0113 | -0.00664 | 2.35
HCI-016, days in culture: 172 | 2.65 | 2.04 | 1.89 | 1.31 | 1.46 | 0.00857 | -0.00483 | 2.1
HCI-016, days in culture: 190 | 1.83 | 1.16 | 1.62 | 1.01 | 1.42 | 0.0979 | -0.0035 | 1.25
HCI-016, days in culture: 199 | 1.55 | 1.22 | 1.18 | 1.49 | 1.36 | 0.0047 | -0.00558 | 1.96

HCI-005.E2
Settings | CTG-3D luminescence at 96 h
12.5 pM | 1.54
0.00025 µM | 1.76
0.005 µM | 1.79
0.1 µM | 1.7
1 µM | 1.44
10 µM | 0.347
100 µM | 0.0328
625 fM | 1.97
